Measured values taken from ChEMBL document CHEMBL1909046, “DrugMatrix in vitro pharmacology data”.

Experiments:
Mu-type opioid receptor = Mu-type opioid receptor (Homo sapiens, UniProt P35372); assay: DRUGMATRIX: Opiate mu (OP3, MOP) radioligand binding (ligand: [3H] Diprenorphine); type: cell membranes, CHO-K1, Membrane; settings: cho-k1; Not Active = under 50% inhibition at 10 µM
[1] = DRUGMATRIX: Serotonin (5-Hydroxytryptamine) 5-HT3 radioligand binding (ligand: [3H] GR-65630); type: cell membranes, Membrane; settings: hek293; Not Active = under 50% inhibition at 10 µM
Insulin receptor = Insulin receptor (Rattus norvegicus, UniProt P15127); type: cell membranes, Wistar, Liver, Membrane; note: in other assays of this panel Not Active means under 50% inhibition at 10 µM
Chain of Insulin receptor (P15127 27-759 limits assumed): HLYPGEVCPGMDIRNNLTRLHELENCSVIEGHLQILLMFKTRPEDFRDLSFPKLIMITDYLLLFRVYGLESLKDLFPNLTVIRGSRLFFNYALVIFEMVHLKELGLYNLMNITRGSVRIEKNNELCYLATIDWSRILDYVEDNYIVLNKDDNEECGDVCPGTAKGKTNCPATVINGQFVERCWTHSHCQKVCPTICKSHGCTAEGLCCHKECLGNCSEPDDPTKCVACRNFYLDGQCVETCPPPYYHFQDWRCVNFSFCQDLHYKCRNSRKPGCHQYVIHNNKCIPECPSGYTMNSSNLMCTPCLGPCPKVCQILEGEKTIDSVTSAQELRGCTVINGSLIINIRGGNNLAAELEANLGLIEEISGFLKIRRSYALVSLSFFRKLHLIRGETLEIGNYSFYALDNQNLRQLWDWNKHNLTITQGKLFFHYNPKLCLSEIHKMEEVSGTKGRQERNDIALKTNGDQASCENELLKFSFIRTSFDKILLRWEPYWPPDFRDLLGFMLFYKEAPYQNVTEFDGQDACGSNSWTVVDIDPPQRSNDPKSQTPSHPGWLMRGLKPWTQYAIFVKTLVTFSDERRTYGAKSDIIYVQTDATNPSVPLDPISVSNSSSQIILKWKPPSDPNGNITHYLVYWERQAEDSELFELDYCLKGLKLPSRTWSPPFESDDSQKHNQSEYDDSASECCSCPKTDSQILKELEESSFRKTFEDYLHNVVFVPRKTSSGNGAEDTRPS
Chain of Insulin receptor (P15127 764-1383 limits assumed): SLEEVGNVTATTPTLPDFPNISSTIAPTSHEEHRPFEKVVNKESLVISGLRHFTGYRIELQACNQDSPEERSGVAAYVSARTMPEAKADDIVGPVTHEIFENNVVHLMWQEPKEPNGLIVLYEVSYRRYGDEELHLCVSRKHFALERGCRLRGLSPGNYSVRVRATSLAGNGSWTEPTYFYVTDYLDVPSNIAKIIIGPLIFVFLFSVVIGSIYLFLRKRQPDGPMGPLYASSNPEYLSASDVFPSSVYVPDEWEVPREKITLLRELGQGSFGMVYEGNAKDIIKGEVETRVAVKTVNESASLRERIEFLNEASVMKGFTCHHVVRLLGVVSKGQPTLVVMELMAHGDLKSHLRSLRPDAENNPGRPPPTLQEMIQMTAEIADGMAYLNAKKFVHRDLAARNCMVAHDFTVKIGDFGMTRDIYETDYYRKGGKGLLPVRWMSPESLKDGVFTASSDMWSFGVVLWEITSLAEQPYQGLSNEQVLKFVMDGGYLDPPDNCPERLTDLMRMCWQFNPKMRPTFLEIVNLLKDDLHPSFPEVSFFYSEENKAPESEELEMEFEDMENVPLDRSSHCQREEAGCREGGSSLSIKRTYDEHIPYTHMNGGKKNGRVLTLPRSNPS

Melanocortin receptor 4 = Melanocortin receptor 4 (Homo sapiens, UniProt P32245); type: cell membranes, Membrane; settings: hek293; note: in other assays of this panel Not Active means under 50% inhibition at 10 µM
Chain of Melanocortin receptor 4 (P32245 whole entry): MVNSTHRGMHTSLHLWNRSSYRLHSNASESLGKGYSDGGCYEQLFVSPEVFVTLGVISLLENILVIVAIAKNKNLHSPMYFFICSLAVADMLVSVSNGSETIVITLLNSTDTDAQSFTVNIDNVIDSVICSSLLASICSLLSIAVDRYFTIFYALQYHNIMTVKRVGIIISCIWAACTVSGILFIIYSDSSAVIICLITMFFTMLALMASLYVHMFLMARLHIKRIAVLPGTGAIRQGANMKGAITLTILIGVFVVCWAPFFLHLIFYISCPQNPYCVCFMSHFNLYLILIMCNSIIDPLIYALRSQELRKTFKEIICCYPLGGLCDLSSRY

[2] = DRUGMATRIX: GABAA, Muscimol, Central radioligand binding (ligand: [3H] Muscimol); type: cell membranes, Rattus norvegicus, Wistar, Brain, Membrane; settings: Not Active = under 50% inhibition at 10 µM
[3] = molecular target: Kappa-type opioid receptor (Homo sapiens, UniProt P41145); assay: DRUGMATRIX: Opiate kappa (OP2, KOP) radioligand binding (ligand: [3H] Diprenorphine); type: cell membranes, HEK293, Membrane; settings: hek293; Not Active = under 50% inhibition at 10 µM
Chain of Kappa-type opioid receptor (P41145 whole entry): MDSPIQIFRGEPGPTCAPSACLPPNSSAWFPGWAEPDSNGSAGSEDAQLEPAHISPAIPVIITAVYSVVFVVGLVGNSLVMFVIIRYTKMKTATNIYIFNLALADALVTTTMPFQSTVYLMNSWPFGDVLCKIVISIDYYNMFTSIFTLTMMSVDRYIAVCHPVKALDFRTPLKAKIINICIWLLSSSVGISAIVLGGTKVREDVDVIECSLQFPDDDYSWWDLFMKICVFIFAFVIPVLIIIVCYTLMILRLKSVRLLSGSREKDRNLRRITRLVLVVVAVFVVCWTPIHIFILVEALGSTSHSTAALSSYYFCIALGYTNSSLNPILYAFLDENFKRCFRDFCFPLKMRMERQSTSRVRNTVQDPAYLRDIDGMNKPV

[4] = molecular target: Sigma non-opioid intracellular receptor 1 (Homo sapiens, UniProt Q99720); assay: DRUGMATRIX: Sigma1 radioligand binding (ligand: [3H] Haloperidol); type: cell membranes, Jurkat, Membrane; settings: jurkat; Not Active = under 50% inhibition at 10 µM
Chain of Sigma non-opioid intracellular receptor 1 (Q99720 whole entry): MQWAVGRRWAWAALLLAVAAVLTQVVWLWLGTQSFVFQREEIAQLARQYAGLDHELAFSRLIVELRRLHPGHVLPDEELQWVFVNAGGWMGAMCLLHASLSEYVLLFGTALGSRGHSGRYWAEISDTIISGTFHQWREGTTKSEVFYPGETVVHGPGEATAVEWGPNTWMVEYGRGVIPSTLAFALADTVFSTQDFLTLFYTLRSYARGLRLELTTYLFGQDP

[5] = DRUGMATRIX: GABAA, Flunitrazepam, Central radioligand binding (ligand: [3H] Flunitrazepam); type: cell membranes, Rattus norvegicus, Wistar, Brain, Membrane; settings: Not Active = under 50% inhibition at 10 µM
[6] = molecular target: Aldo-keto reductase family 1 member B1 (Rattus norvegicus, UniProt P07943); type: tissue-based, Lens of camera-type eye;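 note: inhibition of aldose reductase enzyme activity, measured with DL-glyceraldehyde as the substrate; in other assays of this panel Not Active means under 50% inhibition at 10 µM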
[7] = DRUGMATRIX: Calcium Channel Type L, Benzothiazepine radioligand binding (ligand: [3H] Diltiazem); type: cell membranes, Rattus norvegicus, Wistar, Brain, Membrane; settings: Not Active = under 50% inhibition at 10 µM
[8] = molecular target: Beta-1 adrenergic receptor (Homo sapiens, UniProt P08588); assay: DRUGMATRIX: Adrenergic beta1 radioligand binding (ligand: [125I] Cyanopindolol); type: cell membranes, CHO-K1, Membrane; settings: cho-k1; Not Active = under 50% inhibition at 10 µM
Chain of Beta-1 adrenergic receptor (P08588 whole entry): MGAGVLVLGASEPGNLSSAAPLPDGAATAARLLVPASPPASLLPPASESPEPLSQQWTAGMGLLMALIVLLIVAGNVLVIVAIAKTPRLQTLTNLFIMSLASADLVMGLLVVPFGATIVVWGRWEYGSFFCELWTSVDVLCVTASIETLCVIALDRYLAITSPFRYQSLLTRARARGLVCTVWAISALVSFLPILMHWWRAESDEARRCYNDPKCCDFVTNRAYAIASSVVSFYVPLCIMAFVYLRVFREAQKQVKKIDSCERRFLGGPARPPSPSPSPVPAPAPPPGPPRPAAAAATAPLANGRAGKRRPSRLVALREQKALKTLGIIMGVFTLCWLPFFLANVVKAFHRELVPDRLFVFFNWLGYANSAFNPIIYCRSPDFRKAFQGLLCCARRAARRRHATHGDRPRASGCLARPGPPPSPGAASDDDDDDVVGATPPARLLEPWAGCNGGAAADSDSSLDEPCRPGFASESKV

[9] = DRUGMATRIX: Tumor Necrosis Factor (TNF), Non-Selective radioligand binding (ligand: [125I] TNF-alpha); type: cell membranes, Membrane; settings: u-937; Not Active = under 50% inhibition at 10 µM
[10] = molecular target: 5-hydroxytryptamine receptor 4 (Cavia porcellus, UniProt O70528); type: cell membranes, Dunkin-Hartley, Striatum, Membrane; note: in other assays of this panel Not Active means under 50% inhibition at 10 µM
Chain of 5-hydroxytryptamine receptor 4 (O70528 whole entry): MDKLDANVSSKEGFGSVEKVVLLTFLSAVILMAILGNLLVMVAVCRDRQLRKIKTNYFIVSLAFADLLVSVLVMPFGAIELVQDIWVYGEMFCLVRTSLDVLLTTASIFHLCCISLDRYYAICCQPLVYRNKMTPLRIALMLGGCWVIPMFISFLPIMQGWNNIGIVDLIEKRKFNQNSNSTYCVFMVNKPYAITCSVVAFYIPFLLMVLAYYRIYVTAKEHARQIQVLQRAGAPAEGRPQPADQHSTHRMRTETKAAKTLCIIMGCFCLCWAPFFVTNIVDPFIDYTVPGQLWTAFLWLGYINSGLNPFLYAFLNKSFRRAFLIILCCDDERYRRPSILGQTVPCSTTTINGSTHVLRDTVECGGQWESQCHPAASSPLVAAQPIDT

[11] = molecular target: Beta-3 adrenergic receptor (Homo sapiens, UniProt P13945); assay: DRUGMATRIX: Adrenergic beta3 radioligand binding (ligand: [125I] Cyanopindolol); type: cell membranes, HEK293, Membrane; settings: hek293; Not Active = under 50% inhibition at 10 µM
Chain of Beta-3 adrenergic receptor (P13945 whole entry): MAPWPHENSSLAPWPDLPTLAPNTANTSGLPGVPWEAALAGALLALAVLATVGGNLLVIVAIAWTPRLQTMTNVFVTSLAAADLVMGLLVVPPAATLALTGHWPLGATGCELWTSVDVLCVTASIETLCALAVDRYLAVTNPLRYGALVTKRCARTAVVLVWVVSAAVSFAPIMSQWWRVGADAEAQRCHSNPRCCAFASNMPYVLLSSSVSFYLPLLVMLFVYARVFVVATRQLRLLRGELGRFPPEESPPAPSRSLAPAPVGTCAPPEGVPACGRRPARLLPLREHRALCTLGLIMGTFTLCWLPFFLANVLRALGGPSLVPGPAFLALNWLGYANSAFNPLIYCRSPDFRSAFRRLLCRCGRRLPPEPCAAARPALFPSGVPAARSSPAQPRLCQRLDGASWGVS

[12] = molecular target: T1, Alpha-1D adrenergic receptor (Homo sapiens, UniProt P25100); type: cell membranes, HEK293, Membrane; settings: hek293; note: in other assays of this panel Not Active means under 50% inhibition at 10 µM
T1 sequence (P25100 whole entry): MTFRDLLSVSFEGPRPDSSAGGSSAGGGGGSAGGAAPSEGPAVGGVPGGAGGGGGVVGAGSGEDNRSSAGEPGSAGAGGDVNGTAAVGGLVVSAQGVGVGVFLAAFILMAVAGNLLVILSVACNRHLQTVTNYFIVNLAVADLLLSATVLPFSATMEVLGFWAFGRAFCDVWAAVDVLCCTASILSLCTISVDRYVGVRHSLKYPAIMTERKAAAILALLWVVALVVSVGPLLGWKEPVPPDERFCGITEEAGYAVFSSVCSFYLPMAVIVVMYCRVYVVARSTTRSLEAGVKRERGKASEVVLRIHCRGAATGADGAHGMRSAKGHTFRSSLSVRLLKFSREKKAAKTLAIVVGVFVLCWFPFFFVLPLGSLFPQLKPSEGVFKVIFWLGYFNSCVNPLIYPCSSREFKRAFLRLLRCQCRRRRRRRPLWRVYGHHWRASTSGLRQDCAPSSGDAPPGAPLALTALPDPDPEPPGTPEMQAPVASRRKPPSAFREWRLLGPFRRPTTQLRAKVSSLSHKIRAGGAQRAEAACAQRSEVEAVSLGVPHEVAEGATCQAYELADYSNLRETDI

[13] = molecular target: T2, 5-hydroxytryptamine receptor 1A (Rattus norvegicus, UniProt P19327); type: cell membranes, CHO-K1, Membrane; settings: cho-k1; note: in other assays of this panel Not Active means under 50% inhibition at 10 µM
T2 sequence (P19327 whole entry): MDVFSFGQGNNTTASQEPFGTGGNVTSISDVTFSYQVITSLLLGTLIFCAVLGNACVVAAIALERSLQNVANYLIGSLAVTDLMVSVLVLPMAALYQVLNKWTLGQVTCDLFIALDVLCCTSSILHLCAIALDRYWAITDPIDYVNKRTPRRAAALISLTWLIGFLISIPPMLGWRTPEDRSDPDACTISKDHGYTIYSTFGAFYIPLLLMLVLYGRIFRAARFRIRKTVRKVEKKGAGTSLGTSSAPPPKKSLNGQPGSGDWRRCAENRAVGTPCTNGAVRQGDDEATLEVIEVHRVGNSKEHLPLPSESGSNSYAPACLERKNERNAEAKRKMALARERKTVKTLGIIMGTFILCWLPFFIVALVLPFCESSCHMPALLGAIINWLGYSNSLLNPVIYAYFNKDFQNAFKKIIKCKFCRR

[14] = DRUGMATRIX: Calcium Channel Type L, Phenylalkylamine radioligand binding (ligand: [3H] (-)-Desmethoxyverapamil (D-888)); type: cell membranes, Rattus norvegicus, Wistar, Brain, Membrane; settings: Not Active = under 50% inhibition at 10 µM
[15] = molecular target: 5-hydroxytryptamine receptor 1B (Rattus norvegicus, UniProt P28564); type: cell membranes, Wistar, Cerebral cortex, Membrane; note: in other assays of this panel Not Active means under 50% inhibition at 10 µM
Chain of 5-hydroxytryptamine receptor 1B (P28564 whole entry): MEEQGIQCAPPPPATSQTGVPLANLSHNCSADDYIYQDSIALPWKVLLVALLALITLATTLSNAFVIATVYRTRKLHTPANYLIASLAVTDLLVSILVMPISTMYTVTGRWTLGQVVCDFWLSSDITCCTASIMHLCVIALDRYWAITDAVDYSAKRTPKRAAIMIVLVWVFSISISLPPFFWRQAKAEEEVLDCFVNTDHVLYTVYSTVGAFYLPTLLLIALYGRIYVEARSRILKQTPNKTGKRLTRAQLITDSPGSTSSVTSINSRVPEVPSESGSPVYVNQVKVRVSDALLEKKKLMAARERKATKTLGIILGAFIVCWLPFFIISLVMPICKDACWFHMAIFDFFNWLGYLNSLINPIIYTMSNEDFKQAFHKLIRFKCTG

[16] = DRUGMATRIX: Imidazoline I2, Central radioligand binding (ligand: [3H] Idazoxan); type: cell membranes, Rattus norvegicus, Wistar, Cerebral cortex, Membrane; settings: Not Active = under 50% inhibition at 10 µM
[17] = molecular target: T3, Cholecystokinin receptor type A (Homo sapiens, UniProt P32238); type: cell membranes, Membrane; settings: 1321-n1; note: in other assays of this panel Not Active means under 50% inhibition at 10 µM
T3 sequence (P32238 whole entry): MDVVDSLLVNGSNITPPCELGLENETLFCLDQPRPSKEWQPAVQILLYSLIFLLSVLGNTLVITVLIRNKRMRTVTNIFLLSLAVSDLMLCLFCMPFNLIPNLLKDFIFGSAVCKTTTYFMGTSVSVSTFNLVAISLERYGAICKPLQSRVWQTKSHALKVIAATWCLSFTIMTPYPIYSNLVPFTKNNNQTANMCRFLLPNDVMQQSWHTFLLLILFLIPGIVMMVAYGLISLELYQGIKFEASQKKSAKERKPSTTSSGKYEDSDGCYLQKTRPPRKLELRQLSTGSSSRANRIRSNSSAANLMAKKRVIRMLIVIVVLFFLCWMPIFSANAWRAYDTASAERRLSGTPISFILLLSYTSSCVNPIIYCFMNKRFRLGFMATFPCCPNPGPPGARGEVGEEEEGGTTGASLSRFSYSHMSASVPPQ

Chain of Mu-type opioid receptor (P35372 whole entry): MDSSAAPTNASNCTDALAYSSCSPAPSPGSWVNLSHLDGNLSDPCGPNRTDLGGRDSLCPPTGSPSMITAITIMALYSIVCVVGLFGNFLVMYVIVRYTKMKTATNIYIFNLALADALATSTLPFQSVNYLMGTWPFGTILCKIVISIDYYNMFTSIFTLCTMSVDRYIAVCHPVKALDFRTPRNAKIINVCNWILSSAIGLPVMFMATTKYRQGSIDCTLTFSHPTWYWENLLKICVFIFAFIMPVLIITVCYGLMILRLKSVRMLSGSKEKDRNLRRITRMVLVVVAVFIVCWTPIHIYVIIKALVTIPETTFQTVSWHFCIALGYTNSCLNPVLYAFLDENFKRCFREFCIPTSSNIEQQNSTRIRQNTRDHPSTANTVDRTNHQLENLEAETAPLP

CC(C)(C)NC(=O)[C@@H]1CN(Cc2cccnc2)CCN1C[C@@H](O)C[C@@H](Cc1ccccc1)C(=O)N[C@H]1c2ccccc2C[C@H]1O.O
Not Active: IC50 (Mu-type opioid receptor) | IC50 [1] | Ki [1] | IC50 (Insulin receptor) | IC50 (Melanocortin receptor 4) | IC50 [2] | Ki [2] | IC50 [3] | IC50 [4] | IC50 [5] | Ki [5] | IC50 [6] | IC50 [7] | Ki [7] | IC50 [8] | IC50 [9] | Ki [9] | IC50 [10] | IC50 [11] | IC50 [12] | IC50 [13] | IC50 [14] | Ki [14] | IC50 [15] | IC50 [16] | Ki [16] | IC50 [17]

Nc1ccc(S(N)(=O)=O)cc1 [SULFANILAMIDE]
Not Active: IC50 (Mu-type opioid receptor) | IC50 [1] | Ki [1] | IC50 (Insulin receptor) | IC50 (Melanocortin receptor 4) | IC50 [2] | Ki [2] | IC50 [3] | IC50 [4] | IC50 [5] | Ki [5] | IC50 [6] | IC50 [7] | Ki [7] | IC50 [8] | IC50 [9] | Ki [9] | IC50 [10] | IC50 [11] | IC50 [12] | IC50 [13] | IC50 [14] | Ki [14] | IC50 [15] | IC50 [16] | Ki [16] | IC50 [17]

Cc1ncc([N+](=O)[O-])n1CC(C)O (stereo not given) [SECNIDAZOLE]
Not Active: IC50 (Mu-type opioid receptor) | IC50 [1] | Ki [1] | IC50 (Insulin receptor) | IC50 (Melanocortin receptor 4) | IC50 [2] | Ki [2] | IC50 [3] | IC50 [4] | IC50 [5] | Ki [5] | IC50 [6] | IC50 [7] | Ki [7] | IC50 [8] | IC50 [9] | Ki [9] | IC50 [10] | IC50 [11] | IC50 [12] | IC50 [13] | IC50 [14] | Ki [14] | IC50 [15] | IC50 [16] | Ki [16] | IC50 [17]

Oc1c(I)cc(I)c2cccnc12 [IODOQUINOL]
Not Active: IC50 (Mu-type opioid receptor) | IC50 [1] | Ki [1] | IC50 (Insulin receptor) | IC50 (Melanocortin receptor 4) | IC50 [2] | Ki [2] | IC50 [3] | IC50 [4] | IC50 [5] | Ki [5] | IC50 [6] | IC50 [7] | Ki [7] | IC50 [8] | IC50 [9] | Ki [9] | IC50 [10] | IC50 [11] | IC50 [12] | IC50 [13] | IC50 [14] | Ki [14] | IC50 [15] | IC50 [16] | Ki [16] | IC50 [17]

NNC(=O)c1ccncc1 [ISONIAZID]
Not Active: IC50 (Mu-type opioid receptor) | IC50 [1] | Ki [1] | IC50 (Insulin receptor) | IC50 (Melanocortin receptor 4) | IC50 [2] | Ki [2] | IC50 [3] | IC50 [4] | IC50 [5] | Ki [5] | IC50 [6] | IC50 [7] | Ki [7] | IC50 [8] | IC50 [9] | Ki [9] | IC50 [10] | IC50 [11] | IC50 [12] | IC50 [13] | IC50 [14] | Ki [14] | IC50 [15] | IC50 [16] | Ki [16] | IC50 [17]
